Results: US6194581A, “Substituted pyridines useful as modulators of acetylcholine receptors” (Merck & Co., Inc., priority 1998, dated 2001)
pIC50: −log10 of the molar value. Structures can show the parent of a compound that is named as a salt. Where two headings read alike, the source gives them in different places.

Tests used:
[1] = biological target: T1, nicotinic acetylcholine receptor (Rattus norvegicus, UniProt P09483+P12390); assay: 3H-nicotine binding/displacement, rat cerebral membranes
T1 construct: Synaptic membranes were prepared by homogenizing the cortical tissue; from tissue; host or cells: cerebral cortex synaptic membranes of male Sprague-Dawley rats
T1 sequence (P09483 31-630): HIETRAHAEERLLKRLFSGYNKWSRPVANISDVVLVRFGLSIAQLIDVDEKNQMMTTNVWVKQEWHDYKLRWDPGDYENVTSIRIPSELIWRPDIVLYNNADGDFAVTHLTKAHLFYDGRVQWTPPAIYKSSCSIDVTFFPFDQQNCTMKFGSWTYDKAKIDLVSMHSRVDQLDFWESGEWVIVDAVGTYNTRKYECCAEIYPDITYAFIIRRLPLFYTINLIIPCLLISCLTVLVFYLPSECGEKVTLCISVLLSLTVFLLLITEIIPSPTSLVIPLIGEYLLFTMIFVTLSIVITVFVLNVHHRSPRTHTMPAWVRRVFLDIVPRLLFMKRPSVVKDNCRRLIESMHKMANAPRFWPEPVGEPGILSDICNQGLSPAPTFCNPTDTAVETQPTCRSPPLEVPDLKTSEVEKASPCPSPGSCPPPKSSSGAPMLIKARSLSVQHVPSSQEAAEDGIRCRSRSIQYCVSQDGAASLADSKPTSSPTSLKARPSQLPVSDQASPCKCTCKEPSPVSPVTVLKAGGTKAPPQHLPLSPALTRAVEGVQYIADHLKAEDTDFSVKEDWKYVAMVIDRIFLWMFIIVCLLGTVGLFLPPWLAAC
T1 sequence (P12390 26-500 limits assumed): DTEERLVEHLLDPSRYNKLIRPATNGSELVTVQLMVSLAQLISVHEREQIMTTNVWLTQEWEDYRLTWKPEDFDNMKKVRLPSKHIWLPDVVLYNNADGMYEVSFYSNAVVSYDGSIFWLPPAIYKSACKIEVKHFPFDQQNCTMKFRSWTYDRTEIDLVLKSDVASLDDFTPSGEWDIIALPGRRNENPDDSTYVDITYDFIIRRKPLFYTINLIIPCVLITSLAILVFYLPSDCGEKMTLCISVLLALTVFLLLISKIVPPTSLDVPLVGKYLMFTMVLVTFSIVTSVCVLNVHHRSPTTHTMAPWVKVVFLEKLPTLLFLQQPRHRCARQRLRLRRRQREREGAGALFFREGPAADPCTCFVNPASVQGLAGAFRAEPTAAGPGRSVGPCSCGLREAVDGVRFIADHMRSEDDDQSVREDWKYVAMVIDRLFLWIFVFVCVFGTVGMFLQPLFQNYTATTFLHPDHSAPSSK
Protocol: ^3 H-Nicotine binding to rat cerebral membranes was performed according to modifications of the method of Flyn and Mash (J. Neurochem. 47:1948 (1986)). ^3 H-Nicotine (80 ci/mmol; New England Nuclear Corporation, Boston, Mass.) was used as the ligand for nicotinic acetylcholine receptor binding assays. All other reagents were purchased from the Sigma Chemical Co. (St. Louis, Mo.).
Male Sprague-Dawley rats (250-400 gm) were sacrificed by decapitation, the brains removed and the cerebral cortex dissected on ice. Synaptic membranes were prepared by homogenizing the cortical tissue in 20 volumes of ice-cold modified Tris buffer (50 mM Tris pH 7.4, 120 mM NaCl, 5 mM KCl, 2 mM EDTA, 1 mM PMSF) with a polytron (20 sec at setting 5-6) followed by centrifugation (15 min at 25,000×g) at 4° C. The resultant pellet was rehomogenized and centrifuged twice. The final pellet was resuspended in ice-cold assay buffer (50 mM Tris pH 7.4, 120 mM NaCl, 5 mM KCl, 2 mM CaCl2, 1 MM MgCl2) at a concentration of membrane equivalent to 1 gm wet weight cortex per 10 ml buffer. After protein determination the final membrane preparation was diluted with buffer to 3 mg protein/ml. This membrane preparation was used in either the fresh state or frozen (-70° C.) then thawed.
The binding assay is performed manually using 96-well plates, or using a Biomek automated work station (Beckman Instrument Co.). ^3 H-Nicotine was diluted in assay buffer to give a final concentration of 1.9 nM. The Biomek automated work station was programmed to automatically transfer 750 μl of assay buffer with ^3 H-nicotine, 230 μl of membrane preparation and 20 μl of solution containing the compound of interest in assay buffer, DMSO, ethanol:DMSO (1:1) or appropriate vehicle to the 96-well plate. Atropine was added to the incubation buffer at a final concentration of 3 μM to block binding to muscarinic acetylcholine receptor sites. The plates were maintained on ice for 60 min and the tissue-bound radioactivity was separated from the free by rapid filtration in a Brandel Harvester onto GF/C filters presoaked in 0.5% polyethyleneimine for at least 2 hr. The filters were washed with 4×2 ml of ice-cold assay buffer and filters were transferred to vials to which 4 ml of scintillation cocktail was added. The radioactivity was measured in a LS-6500 Beckman Liquid Scintillation Counter in an autodpm mode. Data were analyzed by log-logit transformation or non-linear regression analysis (e.g., employing GraphPad Prism, available from GraphPad Software, San Diego, Calif.) to give IC50 values. Non-specific binding was defined by 10 μM cytisine.

[2] = biological target: muscarinic acetylcholine receptors; assay: 3H-QNB (quinuclidinyl benzilate) displacement, rat cerebral membranes; format: binding
[3] = tested on: rat olfactory tubercles (3H-dopamine release); format: cell-based
Protocol: (§1) Measurement of ^3 H-dopamine release from rat striatal slices was performed according to the method of Sacaan et al. (J. Neurochem. 59:245 (1992)). Male Sprague-Dawley rats (250-300 g) were decapitated and the striata or olfactory tubercles dissected quickly on a cold glass surface. The tissue was chopped to a thickness of 300 μm with a McIlwain tissue chopper. After chopping again at right angles the tissue was dispersed and incubated for 10 min. at 37° C. in oxygenated Kreb's buffer. ^3 H-Dopamine (40 Ci/mmol, NEN- Dupont, Boston, Mass.) was added (50 nM) and the tissue was incubated for 30 min. in Kreb's buffer containing 10 μM pargyline and 0.5 mM ascorbic acid. Aliquots of the minced tissue were then transferred to chambers of a Brandel Superfusion system in which the tissue was supported on Whatman GF/B filter discs. The tissue was then superfused with buffer at a constant flow rate of 0.3 ml/min by means of a Brandel peristaltic pump. The perfusate was collected in plastic scintillation vials in 3-min fractions, and the radioactivity was estimated by scintillation spectrophotometry. The superfusate for the first 120 min was discarded. After two baseline fractions had been collected, the superfusion buffer was switched to fresh buffer with or without compound of interest. At the end of the experiment the filter and the tissue were removed, and the radiolabeled neurotransmitter content was estimated after extraction into scintillation fluid. The fractional effiux of radiolabeled neurotransmitter was estimated as the amount of radioactivity in the perfusate fraction relative to the total amount in the tissue.
(§2) The results of studies of the effects of an invention compound (as compared to the effect of nicotine) on the release of neurotransmitters from rat brain slices are presented in Table II. The results presented in the Table are expressed as the percent fractional release.

[4] = tested on: rat striatal slices (3H-dopamine release); format: cell-based
Protocol: as §1, §2

[5] = tested on: rat hippocampus slices (3H-norepinephrine release); format: cell-based
Protocol: as §1
(§3) Following essentially the same procedure as set forth in the preceding paragraph, the amount of ^3 H-norepinephrine released from rat hippocampus, thalamus and prefrontal cortex slices superfused with buffer containing (or lacking) compounds of interest was also measured.
as §2

[6] = tested on: rat prefrontal cortex slices (3H-norepinephrine release); format: cell-based
Protocol: as §1, §3, §2

[7] = tested on: rat thalamus slices (3H-norepinephrine release); format: cell-based
Protocol: as §1, §3, §2

[8] = displacement of 1.9 nM 3H-nicotine, rat cerebral membranes, 3 μM atropine, read-out: IC50, Nicotine
[9] = displacement of 60 pM 3H-QNB, rat cerebral membranes
[10] = rat olfactory tubercles, compound concentration not given
[11] = rat striatum slices, compound concentration not given
[12] = rat hippocampus slices, compound concentration not given
[13] = rat prefrontal cortex slices, compound concentration not given
[14] = rat thalamus slices, compound concentration not given

Q: How did the pIC50 [1, 8] turn out when Oc1ccc(-c2cncc(CN3CCCC3)c2)cc1Cl [5-(4-Hydroxy-3-chlorophenyl)-3-(N-pyrrolidinomethyl)pyridine] was run?
A: The pIC50 was 7.37.

Q: What about the pIC50 [2, 9] of the same molecule?
A: The pIC50 was < 5.00.

Q: What about the “3H-Dopamine, Olfactory Tubercles, percent fractional release” value [3, 10] of the same molecule?
A: Its value is 8.75%.

Q: And the “3H-Dopamine, Striatum, percent fractional release” value [4, 11]?
A: The value was 6.00%.

Q: And the “3H-Norepinephrine, Hippocampus, percent fractional release” value [5, 12]?
A: Its value is 1.91%.

Q: And the “3H-Norepinephrine, Prefrontal Cortex, percent fractional release” value [6, 13]?
A: The value was 1.82%.

Q: And the “3H-Norepinephrine, Thalamus, percent fractional release” value [7, 14]?
A: Its value is 1.44%.

Q: Oc1ccc(-c2cncc(CN3CCCC3)c2)cc1 [5-(4-hydroxyphenyl)-3-(N-pyrrolidinomethyl)pyridine] was tested. Which pIC50 [1, 8] did it give?
A: The pIC50 was 7.09.

Q: And the pIC50 [2, 9]?
A: The pIC50 was < 5.00.

Q: And the “3H-Dopamine, Olfactory Tubercles, percent fractional release” value [3, 10]?
A: The value was 6.12%.

Q: And the “3H-Dopamine, Striatum, percent fractional release” value [4, 11]?
A: The value was 4.32%.

Q: And the “3H-Norepinephrine, Hippocampus, percent fractional release” value [5, 12]?
A: Its value is 1.06%.

Q: And the “3H-Norepinephrine, Prefrontal Cortex, percent fractional release” value [6, 13]?
A: The value was 1.24%.

Q: And the “3H-Norepinephrine, Thalamus, percent fractional release” value [7, 14]?
A: Its value is 2.36%.

Q: Which results are given for c1ccc(-c2cncc(CN3CCC3)c2)cc1 [5-Phenyl-3-(N-azetidinomethyl)pyridine fumarate]?
A: pIC50 [1, 8]: 5.92; pIC50 [2, 9]: 5.22

Q: With c1ccc(-c2cncc(CN3CCCC3)c2)cc1 [5-Phenyl-3-(N-pyrrolidinomethyl)pyridine] as the molecule, how does the pIC50 [1, 8] read?
A: Its pIC50 is 6.28.

Q: And the pIC50 [2, 9]?
A: Its pIC50 is 4.95.

Q: And the “3H-Dopamine, Olfactory Tubercles, percent fractional release” value [3, 10]?
A: Its value is 3.68%.

Q: What about the “3H-Dopamine, Striatum, percent fractional release” value [4, 11] of the same molecule?
A: The value was 2.48%.

Q: And the “3H-Norepinephrine, Hippocampus, percent fractional release” value [5, 12]?
A: Its value is 0.74%.

Q: What about the “3H-Norepinephrine, Prefrontal Cortex, percent fractional release” value [6, 13] of the same molecule?
A: Its value is 1.43%.

Q: And the “3H-Norepinephrine, Thalamus, percent fractional release” value [7, 14]?
A: The value was 1.42%.

Q: What does the source list for C#Cc1cncc(CN2CCCC2)c1 [5-ethynyl-3-(N-pyrrolidinomethyl)pyridine]?
A: pIC50 [1]: 7.39; pIC50 [2]: < 4.00; 3H-Dopamine, Olfactory Tubercles, percent fractional release [3, 10]: 0.91%; 3H-Dopamine, Striatum, percent fractional release [4, 11]: 2.09%; 3H-Norepinephrine, Hippocampus, percent fractional release [5, 12]: 0.97%; 3H-Norepinephrine, Prefrontal Cortex, percent fractional release [6, 13]: 0.84%; 3H-Norepinephrine, Thalamus, percent fractional release [7, 14]: 0.67%

Q: How did the pIC50 [1, 8] turn out when c1cncc(CNC2CC2)c1 [N-Cyclopropyl-3-picolylamine] was run?
A: The pIC50 was 4.40.

Q: What about the pIC50 [2, 9] of the same molecule?
A: The pIC50 was < 4.00.

Q: Which results are given for CN(Cc1cccnc1)C1CC1 [N-Methyl-N-cyclopropyl-3-picolylamine]?
A: pIC50 [1, 8]: 4.80; pIC50 [2, 9]: < 4.00

Q: How did the pIC50 [1, 8] turn out when CN(CCCc1ccccc1)Cc1cccnc1 [N-Methyl-N-phenylpropyl-3-picolylamine] was run?
A: Its pIC50 is 4.47.

Q: And the pIC50 [2, 9]?
A: The pIC50 was 4.44.

Q: How did the pIC50 [1, 8] turn out when c1ccc(CCCNCc2cccnc2)cc1 [N-Phenylpropyl-3-picolylamine] was run?
A: Its pIC50 is 4.70.

Q: What about the pIC50 [2, 9] of the same molecule?
A: Its pIC50 is 4.54.

Q: CN1CCCC1c1cccnc1 (stereo not drawn) [Nicotine, reference compound] was tested. Which “3H-Dopamine, Olfactory Tubercles, percent fractional release” value [3] did it give?
A: The value was 2.7 ± 0.4.

Q: And the “3H-Dopamine, Striatum, percent fractional release” value [4]?
A: The value was 2.3 ± 0.7.

Q: What about the “3H-Norepinephrine, Hippocampus, percent fractional release” value [5] of the same molecule?
A: Its value is 8.2 ± 1.5.

Q: And the “3H-Norepinephrine, Prefrontal Cortex, percent fractional release” value [6]?
A: Its value is 2.2 ± 0.2.

Q: What about the “3H-Norepinephrine, Thalamus, percent fractional release” value [7] of the same molecule?
A: The value was 1.7.

Q: How did the pIC50 [1, 8] turn out when CC(c1cccnc1)N(C)C (stereo not drawn) [α-Methyl-N,N-dimethyl-3-picolylamine] was run?
A: The pIC50 was 5.72.

Q: What about the “displacement of ligand with 100 μM of compound (Quinuclidinyl benzilate)” value ([2]; 100 μM compound, 3H-QNB, rat cerebral membranes) of the same molecule?
A: Its value is “Less than 20%”.

Q: CC(NC1CC1)c1cccnc1 (stereo not drawn) [α-Methyl-N-cyclopropyl-3-picolylamine] was tested. Which pIC50 [1, 8] did it give?
A: Its pIC50 is < 4.00.

Q: What about the pIC50 [2, 9] of the same molecule?
A: The pIC50 was < 4.00.

Q: What does the source list for CC(C)NC(C)c1cccnc1 (stereo not drawn) [α-Methyl-N-isopropyl-3-picolylamine]?
A: pIC50 [1, 8]: 4.72; pIC50 [2, 9]: < 4.00

Q: Which results are given for CNC(C)c1cccnc1 (stereo not drawn) [α-Methyl-N-methyl-3-picolylamine]?
A: pIC50 [1, 8]: 5.44; pIC50 [2, 9]: < 4.00
